Source: patent US20260297042A1, “BIARYLAMIDE DERIVATIVES AND THEIR USE AS PKMYT1 INHIBITORS” (CANCER RESEARCH TECHNOLOGY LIMITED, priority 2023, published 2026)

Assays:
[1] = target: T1, Human PKMYT1 (Homo sapiens, UniProt Q99640); assay: PKMYT1 biochemical ADP-Glo enzymatic assay; conditions: ADP-Glo
T1 construct: Human PKMYT1 75-362 was cloned as a TEV cleavable 6xHis fusion; 6xHis (TEV cleavable) (cleaved yes); made in house; host or cells: bacterial cells
T1 sequence (Q99640 75-362): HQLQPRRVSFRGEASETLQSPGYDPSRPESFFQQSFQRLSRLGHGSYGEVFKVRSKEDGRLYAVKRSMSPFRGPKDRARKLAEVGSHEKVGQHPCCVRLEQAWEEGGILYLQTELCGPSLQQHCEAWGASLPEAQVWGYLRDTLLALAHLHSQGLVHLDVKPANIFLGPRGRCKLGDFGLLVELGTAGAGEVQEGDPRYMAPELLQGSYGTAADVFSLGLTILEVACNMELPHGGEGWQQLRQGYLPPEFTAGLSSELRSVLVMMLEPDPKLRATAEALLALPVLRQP
Method in brief: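 IC50 derived from luminescence (ADP-Glo Max) after PKMYT1 kinase domain, 15 nM, turned over 500 µM ATP for 60 min at 26 °C. Buffer contained 10 mM MgCl2, 1 mM EGTA and 0.01% Brij-35 at pH 7.5.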

[2] = target: T2, WEE1 (Homo sapiens, UniProt P30291); assay: Selectivity versus WEE1 assay (ADP-Glo enzymatic assay); assay type: biochemical; conditions: for IC50: ADP-Glo; for PKMYT1 vs. WEE1 selectivity: fold difference in selectivity for PKMYT1 over WEE1
T2 construct: purchased Thermo Fisher PR7373A
Method in brief: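 Inhibition is measured as reduced ADP production, detected by luminescence with ADP-Glo, after enzyme (15 nM) and 30 µM ATP react for 60 min at 26° C in 1% DMSO-containing HEPES buffer, pH 7.5. Data are accepted only if replicate IC50s fall within 3-fold and r2 exceeds 0.9.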

[3] = tested on: OVCAR 3 cells; assay: Cancer cell line proliferation assay, ATP-based cell viability (Cell Titre Glow), OVCAR 3 (CCNE1-amplified); conditions: KYSE30 (normal CCNE1) GI50 vs. OVCAR 3 (CCNE1-amplified) GI50
Method: (§1) Cancer cell lines with either normal (KYSE-30) or amplified CCNE1 expression (OVCAR 3 —ovarian cancer) were evaluated for their sensitivity to PKMYT1 inhibitors using Cell Titre Glow assay (Promega G7573) as endpoint to assess cell proliferation. The luminescence signal was read on a PHERAStar FS microplate reader (BMG Labtech). Data analysis was performed using Microsoft Excel® and Gl50 (concentration that achieves 50% cell growth proliferation inhibition) estimates generated with GraphPad Prism v9.

[4] = tested on: KYSE-30 cells; assay: Cancer cell line proliferation assay, ATP-based cell viability (Cell Titre Glow), KYSE-30 (normal CCNE1); conditions: Homo sapiens, KYSE-30 cells (normal CCNE1), concentration that achieves 50% cell growth proliferation inhibition, read-out: KYSE30 Gl50
Method: as §1

[5] = PKMYT1 kinase domain 15 nM, banded values
[6] = 15 nM PKMYT1 kinase domain, 500 µM ATP, 60 minutes at 26° C., banded
[7] = 15 nM WEE1, 60 minutes at 26° C., banded
[8] = banded, ">N" = at least in this band but could be higher

T2 sequence (P30291 whole entry): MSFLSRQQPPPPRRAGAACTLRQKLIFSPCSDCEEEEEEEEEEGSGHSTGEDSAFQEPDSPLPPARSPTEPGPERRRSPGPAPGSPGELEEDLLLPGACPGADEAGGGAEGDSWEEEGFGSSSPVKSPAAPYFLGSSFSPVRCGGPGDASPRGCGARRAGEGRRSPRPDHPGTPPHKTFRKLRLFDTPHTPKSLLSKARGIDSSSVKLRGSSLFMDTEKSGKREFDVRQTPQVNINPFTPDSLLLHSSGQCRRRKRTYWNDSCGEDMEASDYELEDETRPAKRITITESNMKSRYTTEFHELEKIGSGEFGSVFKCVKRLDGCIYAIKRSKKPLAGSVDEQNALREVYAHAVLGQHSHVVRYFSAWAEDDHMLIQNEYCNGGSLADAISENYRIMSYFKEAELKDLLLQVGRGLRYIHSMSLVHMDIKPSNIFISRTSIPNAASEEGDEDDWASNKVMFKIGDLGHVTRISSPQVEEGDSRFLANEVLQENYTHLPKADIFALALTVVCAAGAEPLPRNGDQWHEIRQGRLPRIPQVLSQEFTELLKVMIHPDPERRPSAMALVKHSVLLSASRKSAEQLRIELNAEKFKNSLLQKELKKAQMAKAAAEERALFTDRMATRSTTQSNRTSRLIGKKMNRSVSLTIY

| SMILES | IC50 [1, 5] [nM] | IC50 ([2]; WEE1 15 nM, banded values) [nM] | PKMYT1 vs. WEE1 selectivity ([2]; banded) | Selectivity ratio KYSE30 Gl50 vs. OVCAR3 Gl50 [3] | GI50 [4] [nM] | IC50 [1, 6] [nM] | IC50 [2, 7] [nM] | PKMYT1 vs. WEE1 selectivity [2, 8] |
| --- | --- | --- | --- | --- | --- | --- | --- | --- |
| CCN(CC)C(=O)C(C)n1nc(Nc2ncc(C(=O)Nc3c(C)ccc(O)c3C)s2)cc1C (centres unmarked) [BAA-509, 2-((1-(1-(diethylamino)-1-oxopropan-2-yl)-5-methyl-1H-pyrazol-3-yl)amino)-N-(3-hydroxy-2,6-dimethylphenyl)thiazole-5-carboxamide] | 50 to 1000 | > 11000 | X (100-<1000 fold) | Y (>20 fold) | > 5000 | – | – | – |
| Cc1ccc(O)c(C)c1NC(=O)c1cnc(Nc2ccn(C(C)C(=O)N3CCCC3)n2)s1 (centres unmarked) [BAA-506, N-(3-Hydroxy-2.6-dimethylphenyl)-2-((1-(1-oxo-1-(pyrrolidin-1-yl)propan-2-yl)-1H-pyrazol-3-yl)amino)thiazole-5-carboxamide] | < 50 | 1000 to 11000 | X (100-<1000 fold) | Y (>20 fold) | > 5000 | – | – | – |
| Cc1ccc(NC(=O)OC(C)(C)C)nc1Nc1ncc(C(=O)Nc2c(C)ccc(O)c2C)s1 [BAA-329, tert-butyl (6-((5-((3-hydroxy-2,6-dimethylphenyl)carbamoyl)thiazol-2-yl)amino)-5-methylpyridin-2-yl)carbamate] | – | – | – | X (3-20 fold) | 500 to 5000 | 50 to 1000 | > 11000 | Y (1000-5000 fold) |
| CCN(CC)C(=O)C(C)n1ccc(Nc2ncc(C(=O)Nc3c(C)ccc(O)c3C)s2)n1 (centres unmarked) [BAA-512, 2-((1-(1-(diethylamino)-1-oxopropan-2-yl)-1H-pyrazol-3-yl)amino)-N-(3-hydroxy-2,6-dimethylphenyl)thiazole-5-carboxamide] | < 50 | > 11000 | Y (1000-5000 fold) | Y (>20 fold) | > 5000 | – | – | – |
| Cc1cn(-c2cccnc2)nc1Nc1ncc(C(=O)Nc2c(C)ccc(O)c2C)s1 [BAA-371, N-(3-hydroxy-2,6-dimethylphenyl)-2-((4-methyl-1-(pyridin-3-yl)-1H-pyrazol-3-yl)amino)thiazole-5-carboxamide] | – | – | – | Y (>20 fold) | > 5000 | < 50 | 1000 to 11000 | X (100-<1000 fold) |
| Cc1ccc(NC(=O)NC(C)(C)C)nc1Nc1ncc(C(=O)Nc2c(C)ccc(O)c2C)s1.Cl [BAA-336, 2-((6-(3-(tert-butyl)ureido)-3-methylpyridin-2-yl)amino)-N-(3-hydroxy-2,6-dimethylphenyl)thiazole-5-carboxamide hydrochloride] | – | – | – | Y (>20 fold) | > 5000 | 50 to 1000 | > 11000 | X (100-<1000 fold) |
| Cc1ccc(O)c(C)c1NC(=O)c1cnc(Nc2ccn(CC(C)(C)O)n2)s1 [BAA-038] | – | – | – | Y (>20 fold) | > 5000 | < 50 | 1000 to 11000 | X (100-<1000 fold) |
| Cc1ccc(O)c(C)c1NC(=O)c1cnc(Nc2cc(C)n(CC(C)C)n2)s1 [BAA-237, N-(3-hydroxy-2,6-dimethylphenyl)-2-((1-isobutyl-5-methyl-1H-pyrazol-3-yl)amino)thiazole-5-carboxamide] | – | – | – | Y (>20 fold) | 500 to 5000 | < 50 | 1000 to 11000 | W (10-<100 fold) |
| Cc1cn(-c2cc(Cl)cnc2F)nc1Nc1ncc(C(=O)Nc2c(C)ccc(O)c2C)s1 [BAA-377, 2-((1-(5-chloro-2-fluoropyridin-3-yl)-4-methyl-1H-pyrazol-3-yl)amino)-N-(3-hydroxy-2,6-dimethylphenyl)thiazole-5-carboxamide] | – | – | – | X (3-20 fold) | 500 to 5000 | 50 to 1000 | 1000 to 11000 | W (10-<100 fold) |
| Cc1ccc(O)c(C)c1NC(=O)c1cnc(Nc2ncnc3sccc23)s1 [BAA-447, N-(3-hydroxy-2,6-dimethylphenyl)-2-(thieno[2,3-d]pyrimidin-4-ylamino)thiazole-5-carboxamide] | < 50 | 1000 to 11000 | X (100-<1000 fold) | Y (>20 fold) | > 5000 | – | – | – |
| Cc1ccc(O)c(C)c1NC(=O)c1cnc(Nc2cccc(NC(=O)C(C)(C)C)n2)s1 [BAA-339, N-(3-Hydroxy-2.6-dimethylphenyl)-2-((6-pivalamidopyridin-2-yl)amino)thiazole-5-carboxamide] | – | – | – | Y (>20 fold) | 500 to 5000 | < 50 | > 11000 | Y (1000-5000 fold) |
| Cc1ccc(O)c(C)c1NC(=O)c1cnc(Nc2nn(CC(F)(F)F)c3ccccc23)s1 [BAA-457, N-(3-hydroxy-2,6-dimethylphenyl)-2-((1-(2,2,2-trifluoroethyl)-1H-indazol-3-yl)amino)thiazole-5-carboxamide] | < 50 | 1000 to 11000 | X (100-<1000 fold) | Y (>20 fold) | 500 to 5000 | – | – | – |
| Cc1cn(-c2scnc2C)nc1Nc1ncc(C(=O)Nc2c(C)ccc(O)c2C)s1 [BAA-386, N-(3-hydroxy-2,6-dimethylphenyl)-2-((4-methyl-1-(4-methylthiazol-5-yl)-1H-pyrazol-3-yl)amino)thiazole-5-carboxamide] | – | – | – | Y (>20 fold) | > 5000 | < 50 | 1000 to 11000 | X (100-<1000 fold) |
| Cc1cn(-c2ccncc2)nc1Nc1ncc(C(=O)Nc2c(C)ccc(O)c2C)s1 [BAA-372, N-(3-hydroxy-2,6-dimethylphenyl)-2-((4-methyl-1-(pyridin-4-yl)-1H-pyrazol-3-yl)amino)thiazole-5-carboxamide] | – | – | – | Y (>20 fold) | > 5000 | < 50 | 50 to 1000 | W (10-<100 fold) |
| CCn1cc(C)c(Nc2ncc(C(=O)Nc3c(C)ccc(O)c3C)s2)n1 [BAA-477, 2-((1-ethyl-4-methyl-1H-pyrazol-3-yl)amino)-N-(3-hydroxy-2,6-dimethylphenyl)thiazole-5-carboxamide] | < 50 | 1000 to 11000 | X (100-<1000 fold) | Y (>20 fold) | > 5000 | – | – | – |
| Cc1cn(C)nc1Nc1ncc(C(=O)Nc2c(C)ccc(O)c2C)s1 [BAA-123, 2-[(1,4-dimethylpyrazol-3-yl)amino]-N-(3-hydroxy-2,6-dimethyl-phenyl)thiazole-5-carboxamide] | – | – | – | Y (>20 fold) | > 5000 | < 50 | 1000 to 11000 | X (100-<1000 fold) |
